Laboratory results as given in patent publication US4063022A, “Antisecretory 2-imidazolidinones” (Morton-Norwich Products, Inc., priority 1976, dated 1977).

Tested on: gastric acid secretion
Test: modified standard pylorus-ligated secretory testing procedure in the rat
Format: in vivo, Sprague-Dawley rats
Conditions: 300 mg/kg p.o. 1 hr prior to pylorus ligation, 4 hrs after ligation; for % of Control Vol. of Gastric Secretion: control 0.5% Methocel; for % of Control Gastric Acid Output: titration to pH 7, control 0.5% Methocel
Method: Such effect is evidenced using a modified standard pyloruslighted secretory testing procedure in the rat. Sprague-Dawley rats, weighing […] and previously fasted for 24 hrs, were used. All compounds were given perorally as suspensions in 0.5% Methocel 1 hr prior to pylorus ligation. Under light ether anesthesia, the rat stomach was ligated at the pylorus region. Four hrs after ligation the conscious rat was sacrificed by a chloroform overdose. The stomach was carefully excised and its content drained into a centrifuge tube. Samples were centrifuged to separate secretions from debris. Gastric fluid volume reading and determination of sample contamination, based on debris and sample color, was made. Titration was performed on a sample aliquot of 1 ml diluted to a volume of 5 ml using distilled water. The titrant used was 0.1N NaOH. Total gastric acid output in the stomach was determined by titration to ph 7. A dose of 300 mg/kg p.o. of a compound was administered to a group of rats and its effect on the volume of gastric secretion and acid output compared to a control group receiving 0.5% Methocel p.o. The activity of each compound based on the degree of inhibition of gastric acid output is set forth in Table I.

SMILES	% of Control Vol. of Gastric Secretion	% of Control Gastric Acid Output
O=C1NCCN1Cc1ccc(Cl)c(C(F)(F)F)c1 [Example 11-C, 1-(4-Chloro-3-trifluoromethylbenzyl)-2-imidazolidinone]	23.0 % of Control	16.8 % of Control
CN1CCN(Cc2ccc(Cl)c(Cl)c2)C1=O [I-B, 1-(3,4-Dichlorobenzyl)-3-methyl-2-imidazolidinone]	39.2 % of Control	8.9 % of Control
